Assay results as given in paper PMC4624765, “C-di-GMP Regulates Motile to Sessile Transition by Modulating MshA Pili Biogenesis and Near-Surface Motility Behavior in Vibrio cholerae” (PLoS Pathogens, 2015).

Experiments:
[1] = molecular target: T1, MshE (Vibrio cholerae, UniProt Q9KUV7); test: fluorescence thermal shift (SYPRO Orange); format: binding; parameters: gene VC_0405; full-length, expressed in E. coli BL21, purified on GST column with glutathione elution; details: 25 mM Tris-HCl pH 7.5, 100 mM NaCl, 0.2 mM MgCl2
[2] = molecular target: T1, MshE; test: biochemical; parameters: gene VC_0405
[3] = molecular target: T2, VpsT (Vibrio cholerae, UniProt Q9KKZ8); test: biochemical
T2 construct: gene VC_A0952

[4] = molecular target: T3, MshE N-terminal domain (Vibrio cholerae, UniProt Q9KUV7); test: fluorescence thermal shift (SYPRO Orange); format: binding; details: 25 mM Tris-HCl pH 7.5, 100 mM NaCl, 0.2 mM MgCl2
T3 construct: gene VC_0405; N-terminal domain, residues 1-180, expressed in E. coli BL21
T3 sequence (Q9KUV7 1-180 limits assumed): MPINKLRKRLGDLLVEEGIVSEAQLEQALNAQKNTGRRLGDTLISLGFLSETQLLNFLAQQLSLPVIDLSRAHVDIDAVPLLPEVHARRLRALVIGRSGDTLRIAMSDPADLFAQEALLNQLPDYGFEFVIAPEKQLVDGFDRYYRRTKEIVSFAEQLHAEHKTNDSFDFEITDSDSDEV

T1 sequence (Q9KUV7 1-575): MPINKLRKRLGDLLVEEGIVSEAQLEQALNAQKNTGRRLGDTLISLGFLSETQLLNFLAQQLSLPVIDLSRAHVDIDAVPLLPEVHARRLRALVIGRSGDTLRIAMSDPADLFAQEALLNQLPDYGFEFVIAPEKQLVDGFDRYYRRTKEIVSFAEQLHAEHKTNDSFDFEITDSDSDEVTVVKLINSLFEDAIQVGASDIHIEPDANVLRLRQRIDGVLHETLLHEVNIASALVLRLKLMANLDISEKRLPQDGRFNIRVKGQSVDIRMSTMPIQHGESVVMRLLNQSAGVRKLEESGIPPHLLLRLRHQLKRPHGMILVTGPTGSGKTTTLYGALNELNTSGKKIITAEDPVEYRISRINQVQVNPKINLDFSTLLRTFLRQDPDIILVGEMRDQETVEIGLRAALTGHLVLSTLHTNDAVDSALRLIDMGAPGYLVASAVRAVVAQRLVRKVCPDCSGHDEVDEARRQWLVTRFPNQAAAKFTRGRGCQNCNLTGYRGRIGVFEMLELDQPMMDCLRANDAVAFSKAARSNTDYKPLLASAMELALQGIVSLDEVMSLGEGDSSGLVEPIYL

Question: With `Nc1ncnc2c1ncn2[C@@H]1O[C@H](COP(=O)(O)OP(=O)(O)OP(=O)(O)O)[C@@H](O)[C@H]1O` [ATP] as the compound, how does the “Tm with 2 mM ligand” value [1] read?
Answer: Its value is 40.15 ±1.02 °C.

Question: Which Kd [2] does the source give for `Nc1nc2c(ncn2[C@@H]2O[C@@H]3COP(=O)(O)O[C@H]4[C@@H](O)[C@H](n5cnc6c(=O)[nH]c(N)nc65)O[C@@H]4COP(=O)(O)O[C@H]3[C@H]2O)c(=O)[nH]1` [c-di-GMP] here?
Answer: The Kd was 8.77 µM.

Question: What about the “Tm with 2 mM ligand” value [1] of the same compound?
Answer: The value was 42.77±0.70 °C.

Question: What about the Kd [3] of the same compound?
Answer: The Kd was 10.1 µM.

Question: And the “Tm with 2 mM ligand” value [4]?
Answer: Its value is 70.18 ±0.55 °C.
